Key:
Assay in all cases: standard MIC microtitre synergy test with ampicillin
Type in all cases: cell-based
[1] = tested on: Staphylococcus aureus Russell; conditions: one cell spanning Inhibitor Concentration 20, 5 and 1 μg/ml
From the text: (§1) In a standard MIC microtitre synergy test with ampicillin the following results were obtained with the compound of Example 7.

[2] = tested on: Proteus mirabilis C889
From the text: as §1

[3] = tested on: E.coli JT39
From the text: as §1

[4] = tested on: Klebsiella aerogenes E70
From the text: as §1

[5] = Inhibitor Concentration 1 μg/ml
[6] = Inhibitor Concentration 5 μg/ml
[7] = Inhibitor Concentration 20 μg/ml

Structure (SMILES): O=C(O)[C@H]1/C(=C/Cc2ccccc2O)O[C@@H]2CC(=O)N21 [Example 7, Lithium 9-(2-hydroxyphenyl)deoxyclavulanate]
- MIC microtitre synergy test with ampicillin [1]: - Inhibition -
- MIC microtitre synergy test with ampicillin [2, 5]: 16
- MIC microtitre synergy test with ampicillin [2, 6]: 16
- MIC microtitre synergy test with ampicillin [2, 7]: 8
- MIC microtitre synergy test with ampicillin [3, 5]: 125
- MIC microtitre synergy test with ampicillin [3, 6]: 16
- MIC microtitre synergy test with ampicillin [3, 7]: 2
- MIC microtitre synergy test with ampicillin [4, 5]: 12.5
- MIC microtitre synergy test with ampicillin [4, 6]: 6.25
- MIC microtitre synergy test with ampicillin [4, 7]: 3.1
